Laboratory results reported in ChEMBL document CHEMBL1149847, “Erigeroflavanone, a flavanone derivative from the flowers of Erigeron annuus with protein glycation and aldose reductase inhibitory activity” (J Nat Prod, 2008).

Assays:
[1] = target: Aldo-keto reductase family 1 member B1 (Rattus norvegicus, UniProt P07943); assay: Inhibition of rat lens aldose reductase
[2] = Inhibition of advanced glycation end products formation after 14 days; assay type: physicochemical

Compound | IC50 [1] | IC50 [2]
C[C@@H]1O[C@@H](Oc2c(-c3ccc(O)c(O)c3)oc3cc(O)cc(O)c3c2=O)[C@H](O)[C@H](O)[C@H]1O [QUERCITRIN] | 0.16 µM | 
O=C(O)[C@H]1O[C@@H](Oc2cc(O)c3c(=O)cc(-c4ccc(O)cc4)oc3c2)[C@H](O)[C@@H](O)[C@@H]1O | 1.28 µM | 107 µM
O=c1c(O[C@@H]2O[C@H](CO)[C@@H](O)[C@H](O)[C@H]2O)c(-c2ccc(O)cc2)oc2cc(O)cc(O)c12 [ASTRAGALIN] |  | 179 µM
O=c1cc(-c2ccc(O)cc2)oc2cc(O)cc(O)c12 [APIGENIN] | 6.67 µM | 89.9 µM
COC(=O)[C@H]1O[C@@H](Oc2cc(O)c3c(=O)cc(-c4ccc(O)cc4)oc3c2)[C@H](O)[C@@H](O)[C@@H]1O | 9.02 µM | 
O=c1c(O)c(-c2ccc(O)cc2)oc2cc(O)cc(O)c12 [KAEMPFEROL] | 1.33 µM | 
COC(=O)C[C@]1(O)C(=O)c2c(O)cc(O)cc2O[C@]1(OC)c1ccc(O)c(O)c1 (relative stereo) [ERIGEROFLAVANONE] | 46.9 µM | 
N=C(N)NN [PIMAGEDINE] |  | 961 µM
